{"source": "BigSolDB 2.1", "data": [{"compound": "Clc1ncnc2[nH]ccc12", "values": [{"measurement": "solubility (mole fraction)", "setting": "in THF, 278.15 K", "value": 0.0461}, {"measurement": "solubility (mole fraction)", "setting": "in THF, 283.15 K", "value": 0.0501}, {"measurement": "solubility (mole fraction)", "setting": "in THF, 288.15 K", "value": 0.0544}, {"measurement": "solubility (mole fraction)", "setting": "in THF, 293.15 K", "value": 0.0594}, {"measurement": "solubility (mole fraction)", "setting": "in THF, 298.15 K", "value": 0.0644}, {"measurement": "solubility (mole fraction)", "setting": "in THF, 303.15 K", "value": 0.0699}, {"measurement": "solubility (mole fraction)", "setting": "in THF, 308.15 K", "value": 0.0757}, {"measurement": "solubility (mole fraction)", "setting": "in THF, 313.15 K", "value": 0.0818}, {"measurement": "solubility (mole fraction)", "setting": "in THF, 318.15 K", "value": 0.0881}, {"measurement": "solubility (mole fraction)", "setting": "in THF, 323.15 K", "value": 0.0954}, {"measurement": "solubility (mole fraction)", "setting": "in acetone, 278.15 K", "value": 0.0146}, {"measurement": "solubility (mole fraction)", "setting": "in acetone, 283.15 K", "value": 0.0165}, {"measurement": "solubility (mole fraction)", "setting": "in acetone, 288.15 K", "value": 0.0187}, {"measurement": "solubility (mole fraction)", "setting": "in acetone, 293.15 K", "value": 0.021}, {"measurement": "solubility (mole fraction)", "setting": "in acetone, 298.15 K", "value": 0.0238}, {"measurement": "solubility (mole fraction)", "setting": "in acetone, 303.15 K", "value": 0.0265}, {"measurement": "solubility (mole fraction)", "setting": "in acetone, 308.15 K", "value": 0.0296}, {"measurement": "solubility (mole fraction)", "setting": "in acetone, 313.15 K", "value": 0.0331}, {"measurement": "solubility (mole fraction)", "setting": "in acetone, 318.15 K", "value": 0.0368}, {"measurement": "solubility (mole fraction)", "setting": "in acetone, 323.15 K", "value": 0.0409}, {"measurement": "solubility (mole fraction)", "setting": "in acetonitrile, 278.15 K", "value": 0.00218}, {"measurement": "solubility (mole fraction)", "setting": "in acetonitrile, 283.15 K", "value": 0.00277}, {"measurement": "solubility (mole fraction)", "setting": "in acetonitrile, 288.15 K", "value": 0.00338}, {"measurement": "solubility (mole fraction)", "setting": "in acetonitrile, 293.15 K", "value": 0.00413}, {"measurement": "solubility (mole fraction)", "setting": "in acetonitrile, 298.15 K", "value": 0.00502}, {"measurement": "solubility (mole fraction)", "setting": "in acetonitrile, 303.15 K", "value": 0.00615}, {"measurement": "solubility (mole fraction)", "setting": "in acetonitrile, 308.15 K", "value": 0.00736}, {"measurement": "solubility (mole fraction)", "setting": "in acetonitrile, 313.15 K", "value": 0.00881}, {"measurement": "solubility (mole fraction)", "setting": "in acetonitrile, 318.15 K", "value": 0.0104}, {"measurement": "solubility (mole fraction)", "setting": "in acetonitrile, 323.15 K", "value": 0.0124}, {"measurement": "solubility (mole fraction)", "setting": "in ethanol, 278.15 K", "value": 0.00849}, {"measurement": "solubility (mole fraction)", "setting": "in ethanol, 283.15 K", "value": 0.0098}, {"measurement": "solubility (mole fraction)", "setting": "in ethanol, 288.15 K", "value": 0.0113}, {"measurement": "solubility (mole fraction)", "setting": "in ethanol, 293.15 K", "value": 0.0131}, {"measurement": "solubility (mole fraction)", "setting": "in ethanol, 298.15 K", "value": 0.0151}, {"measurement": "solubility (mole fraction)", "setting": "in ethanol, 303.15 K", "value": 0.0174}, {"measurement": "solubility (mole fraction)", "setting": "in ethanol, 308.15 K", "value": 0.0199}, {"measurement": "solubility (mole fraction)", "setting": "in ethanol, 313.15 K", "value": 0.0225}, {"measurement": "solubility (mole fraction)", "setting": "in ethanol, 318.15 K", "value": 0.0256}, {"measurement": "solubility (mole fraction)", "setting": "in ethanol, 323.15 K", "value": 0.0291}, {"measurement": "solubility (mole fraction)", "setting": "in ethyl acetate, 278.15 K", "value": 0.0132}, {"measurement": "solubility (mole fraction)", "setting": "in ethyl acetate, 283.15 K", "value": 0.0151}, {"measurement": "solubility (mole fraction)", "setting": "in ethyl acetate, 288.15 K", "value": 0.0172}, {"measurement": "solubility (mole fraction)", "setting": "in ethyl acetate, 293.15 K", "value": 0.0194}, {"measurement": "solubility (mole fraction)", "setting": "in ethyl acetate, 298.15 K", "value": 0.0218}, {"measurement": "solubility (mole fraction)", "setting": "in ethyl acetate, 303.15 K", "value": 0.0246}, {"measurement": "solubility (mole fraction)", "setting": "in ethyl acetate, 308.15 K", "value": 0.0274}, {"measurement": "solubility (mole fraction)", "setting": "in ethyl acetate, 313.15 K", "value": 0.0307}, {"measurement": "solubility (mole fraction)", "setting": "in ethyl acetate, 318.15 K", "value": 0.034}, {"measurement": "solubility (mole fraction)", "setting": "in ethyl acetate, 323.15 K", "value": 0.0376}, {"measurement": "solubility (mole fraction)", "setting": "in isopropanol, 278.15 K", "value": 0.00973}, {"measurement": "solubility (mole fraction)", "setting": "in isopropanol, 283.15 K", "value": 0.0113}, {"measurement": "solubility (mole fraction)", "setting": "in isopropanol, 288.15 K", "value": 0.0131}, {"measurement": "solubility (mole fraction)", "setting": "in isopropanol, 293.15 K", "value": 0.0151}, {"measurement": "solubility (mole fraction)", "setting": "in isopropanol, 298.15 K", "value": 0.0174}, {"measurement": "solubility (mole fraction)", "setting": "in isopropanol, 303.15 K", "value": 0.0198}, {"measurement": "solubility (mole fraction)", "setting": "in isopropanol, 308.15 K", "value": 0.0226}, {"measurement": "solubility (mole fraction)", "setting": "in isopropanol, 313.15 K", "value": 0.0258}, {"measurement": "solubility (mole fraction)", "setting": "in isopropanol, 318.15 K", "value": 0.0291}, {"measurement": "solubility (mole fraction)", "setting": "in isopropanol, 323.15 K", "value": 0.0328}, {"measurement": "solubility (mole fraction)", "setting": "in methanol, 278.15 K", "value": 0.0065}, {"measurement": "solubility (mole fraction)", "setting": "in methanol, 283.15 K", "value": 0.00781}, {"measurement": "solubility (mole fraction)", "setting": "in methanol, 288.15 K", "value": 0.0093}, {"measurement": "solubility (mole fraction)", "setting": "in methanol, 293.15 K", "value": 0.011}, {"measurement": "solubility (mole fraction)", "setting": "in methanol, 298.15 K", "value": 0.013}, {"measurement": "solubility (mole fraction)", "setting": "in methanol, 303.15 K", "value": 0.0152}, {"measurement": "solubility (mole fraction)", "setting": "in methanol, 308.15 K", "value": 0.0177}, {"measurement": "solubility (mole fraction)", "setting": "in methanol, 313.15 K", "value": 0.0205}, {"measurement": "solubility (mole fraction)", "setting": "in methanol, 318.15 K", "value": 0.0236}, {"measurement": "solubility (mole fraction)", "setting": "in methanol, 323.15 K", "value": 0.0272}, {"measurement": "solubility (mole fraction)", "setting": "in n-butanol, 278.15 K", "value": 0.0122}, {"measurement": "solubility (mole fraction)", "setting": "in n-butanol, 283.15 K", "value": 0.0139}, {"measurement": "solubility (mole fraction)", "setting": "in n-butanol, 288.15 K", "value": 0.0157}, {"measurement": "solubility (mole fraction)", "setting": "in n-butanol, 293.15 K", "value": 0.0179}, {"measurement": "solubility (mole fraction)", "setting": "in n-butanol, 298.15 K", "value": 0.0202}, {"measurement": "solubility (mole fraction)", "setting": "in n-butanol, 303.15 K", "value": 0.0227}, {"measurement": "solubility (mole fraction)", "setting": "in n-butanol, 308.15 K", "value": 0.0254}, {"measurement": "solubility (mole fraction)", "setting": "in n-butanol, 313.15 K", "value": 0.0285}, {"measurement": "solubility (mole fraction)", "setting": "in n-butanol, 318.15 K", "value": 0.0317}, {"measurement": "solubility (mole fraction)", "setting": "in n-butanol, 323.15 K", "value": 0.0354}, {"measurement": "solubility (mole fraction)", "setting": "in n-heptane, 278.15 K", "value": 0.000583}, {"measurement": "solubility (mole fraction)", "setting": "in n-heptane, 283.15 K", "value": 0.00075}, {"measurement": "solubility (mole fraction)", "setting": "in n-heptane, 288.15 K", "value": 0.00095}, {"measurement": "solubility (mole fraction)", "setting": "in n-heptane, 293.15 K", "value": 0.0012}, {"measurement": "solubility (mole fraction)", "setting": "in n-heptane, 298.15 K", "value": 0.0015}, {"measurement": "solubility (mole fraction)", "setting": "in n-heptane, 303.15 K", "value": 0.00187}, {"measurement": "solubility (mole fraction)", "setting": "in n-heptane, 308.15 K", "value": 0.00229}, {"measurement": "solubility (mole fraction)", "setting": "in n-heptane, 313.15 K", "value": 0.00281}, {"measurement": "solubility (mole fraction)", "setting": "in n-heptane, 318.15 K", "value": 0.00343}, {"measurement": "solubility (mole fraction)", "setting": "in n-heptane, 323.15 K", "value": 0.00415}, {"measurement": "solubility (mole fraction)", "setting": "in n-hexane, 278.15 K", "value": 0.000393}, {"measurement": "solubility (mole fraction)", "setting": "in n-hexane, 283.15 K", "value": 0.000511}, {"measurement": "solubility (mole fraction)", "setting": "in n-hexane, 288.15 K", "value": 0.000652}, {"measurement": "solubility (mole fraction)", "setting": "in n-hexane, 293.15 K", "value": 0.000851}, {"measurement": "solubility (mole fraction)", "setting": "in n-hexane, 298.15 K", "value": 0.00106}, {"measurement": "solubility (mole fraction)", "setting": "in n-hexane, 303.15 K", "value": 0.00132}, {"measurement": "solubility (mole fraction)", "setting": "in n-hexane, 308.15 K", "value": 0.00165}, {"measurement": "solubility (mole fraction)", "setting": "in n-hexane, 313.15 K", "value": 0.00202}, {"measurement": "solubility (mole fraction)", "setting": "in n-hexane, 318.15 K", "value": 0.0025}, {"measurement": "solubility (mole fraction)", "setting": "in n-hexane, 323.15 K", "value": 0.00306}, {"measurement": "solubility (mole fraction)", "setting": "in n-propanol, 278.15 K", "value": 0.0098}, {"measurement": "solubility (mole fraction)", "setting": "in n-propanol, 283.15 K", "value": 0.0114}, {"measurement": "solubility (mole fraction)", "setting": "in n-propanol, 288.15 K", "value": 0.0134}, {"measurement": "solubility (mole fraction)", "setting": "in n-propanol, 293.15 K", "value": 0.0155}, {"measurement": "solubility (mole fraction)", "setting": "in n-propanol, 298.15 K", "value": 0.018}, {"measurement": "solubility (mole fraction)", "setting": "in n-propanol, 303.15 K", "value": 0.0205}, {"measurement": "solubility (mole fraction)", "setting": "in n-propanol, 308.15 K", "value": 0.0235}, {"measurement": "solubility (mole fraction)", "setting": "in n-propanol, 313.15 K", "value": 0.0269}, {"measurement": "solubility (mole fraction)", "setting": "in n-propanol, 318.15 K", "value": 0.0305}, {"measurement": "solubility (mole fraction)", "setting": "in n-propanol, 323.15 K", "value": 0.0347}, {"measurement": "solubility (mole fraction)", "setting": "in toluene, 278.15 K", "value": 0.000808}, {"measurement": "solubility (mole fraction)", "setting": "in toluene, 283.15 K", "value": 0.000993}, {"measurement": "solubility (mole fraction)", "setting": "in toluene, 288.15 K", "value": 0.00124}, {"measurement": "solubility (mole fraction)", "setting": "in toluene, 293.15 K", "value": 0.00153}, {"measurement": "solubility (mole fraction)", "setting": "in toluene, 298.15 K", "value": 0.00186}, {"measurement": "solubility (mole fraction)", "setting": "in toluene, 303.15 K", "value": 0.00225}, {"measurement": "solubility (mole fraction)", "setting": "in toluene, 308.15 K", "value": 0.00272}, {"measurement": "solubility (mole fraction)", "setting": "in toluene, 313.15 K", "value": 0.00324}, {"measurement": "solubility (mole fraction)", "setting": "in toluene, 318.15 K", "value": 0.00387}, {"measurement": "solubility (mole fraction)", "setting": "in toluene, 323.15 K", "value": 0.00461}]}]}
